US7884122B2, “Extended release formulation and method of treating adrenergic dysregulation” (Shionogi Pharma, Inc., priority 2007, dated 2011)
Converted amounts (≈) assume the structure as drawn.

Key:
[1] = system: systolic and diastolic blood pressure; test: animal or person; conditions: Homo sapiens, 600 h, Systolic BP vs AUCτ at Day 25, sigmoidal Emax model
Procedure: Mean baseline ABPM data for the three treatment groups were compared with mean data obtained on Day 26 (last day of treatment) and on Days 27 and 28. A more detailed PK/PD analysis was conducted by using the individual patient ABPM data to compare the blood pressure profile at Baseline and on Day 26 of treatment. The daytime (0- to 12-hour) intervals were used in the analysis, since pharmacokinetic data were collected on Day 25, over the daytime 12-hour dosing interval at steady state. In order to investigate the maintenance of effect at the tail end of the inter-dosing interval, differences between the SBP, DBP, and HR values at Baseline and the last two hours in the inter-dosing interval (Hours 11 and 12) on Day 26 were calculated for each patient. Paired t-tests were performed to test the significance of these differences between Baseline and the last two measuring times. The approach taken to quantify the effects of clonidine on blood pressure was to calculate the difference between the areas under the BP vs. time curves (AUCBP) at Baseline and on Day 26. These values were used to relate the pharmacodynamic effect to dose, as well as to conduct the PK/PD analyses.
Pharmacokinetic-pharmacodynamic modeling was conducted using the blood pressure response data and the Cmax, Cmin and AUCτ values at Day 25 of dosing. […]

[2] = traditional oral formulation of clonidine; cited from earlier work

In the case of `Clc1cccc(Cl)c1N=C1NCCN1` [clonidine, 2,6-dichloro-N-2-imidazolidinylidene benzeneamine], the EC50 [1] is listed as 4.7 ng/mL (≈ 0.0204 µM), the EC90 [1] is listed as 6.69 ng/mL (≈ 0.0291 µM) and the biological half-life [2] is listed as “about four to six hours”.
